Test results from PubChem BioAssay (NCI).
Several values for one entry are separate records, joined by “and”; a condition that tells them apart may be missing. Equal entries are not always repeated.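 Exposure lasted 48 hours, with cells grown in 96-well plates and compounds tested at five concentrations. GI50 = concentration required for 50% inhibition of growth. TGI is the concentration that stops growth completely.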

Assays:
Experiment in all cases: DTP human tumour cell line panel, 48 h
RXF 393 renal = test system: RXF 393 renal
BT-549 breast = test system: BT-549 breast
NCI-H522 lung = test system: NCI-H522 lung
NCI-H226 lung = test system: NCI-H226 lung
U251 CNS = test system: U251 CNS
SN12C renal = test system: SN12C renal
MDA-MB-231 breast = test system: MDA-MB-231 breast
HL-60(TB) leukemia = test system: HL-60(TB) leukemia
HOP-62 NSCLC = test system: HOP-62 NSCLC
CCRF-CEM leukemia = test system: CCRF-CEM leukemia
HS 578T breast = test system: HS 578T breast
KM12 colon = test system: KM12 colon
MALME-3M melanoma = test system: MALME-3M melanoma
HCT-116 colon = test system: HCT-116 colon
SW-620 colon = test system: SW-620 colon

SMILES | TGI (RXF 393 renal) [µM] | TGI (BT-549 breast) [µM] | TGI (NCI-H522 lung) [µM] | TGI (NCI-H226 lung) [µM] | TGI (U251 CNS) [µM] | TGI (SN12C renal) [µM] | TGI (MDA-MB-231 breast) [µM] | TGI (HL-60(TB) leukemia) [µM] | TGI (HOP-62 NSCLC) [µM] | TGI (CCRF-CEM leukemia) [µM] | TGI (HS 578T breast) [µM] | TGI (KM12 colon) [µM] | TGI (MALME-3M melanoma) [µM] | TGI (HCT-116 colon) [µM] | TGI (SW-620 colon) [µM] | GI50 (RXF 393 renal) | GI50 (HL-60(TB) leukemia) | GI50 (CCRF-CEM leukemia) | GI50 (HS 578T breast)
N=C1C(=N)c2ccccc2-c2ccccc21 | 3.23 | 2.23 | 3.99 | 3.57 | 2.63 | 2.49 | 1.16 | 0.658 | 3.04 | > 20 | > 26.1 | 3.4 | 2.57 | 1.2 | – | – | – | – | –
CCCNC(=S)/N=C\c1c(O)c2ccccc2oc1=O | > 100 | > 100 | > 100 | > 100 | > 100 | > 100 | > 100 | > 100 | > 100 | > 100 | > 100 | > 100 | > 100 | > 100 | > 100 | – | – | – | –
Cc1sc2nc3n(c(=O)c2c1C)N=C(c1ccc(Cl)cc1)CS3 | > 100 | > 100 | > 100 | > 100 | > 100 | > 100 | > 100 | > 100 | > 100 | > 100 | > 100 | > 100 | > 100 | > 100 | > 100 | – | – | – | –
CC1(C)OCC(C2OC(N3O[C@H](CI)C[C@@H]3c3ccccc3)C3OC(C)(C)OC23)O1 (stereo not given in full) | > 100 | > 100 | > 100 | – | > 100 | > 100 | > 100 | > 100 | > 100 | > 100 | > 100 | > 100 | > 100 | > 100 | > 100 | – | – | – | –
CC1(O)/C(=N/O)CC2CC1C2(C)C (stereo not given) | > 100 | > 100 | > 100 | > 100 | > 100 | > 100 | > 100 | > 100 | – | > 100 | > 100 | > 100 | > 100 | – | > 100 | – | – | – | –
CCOC(=O)CCC(NC(=O)c1ccc(Nc2nc3cc(C(F)(F)F)ccc3nc2-c2ccccc2)cc1)C(=O)OCC (stereo not given) | > 100 | > 100 | – | > 100 | > 100 | > 100 | > 100 | > 100 | > 100 | > 100 | > 100 | > 100 | > 100 | > 100 | > 100 | – | – | – | –
CCOC(=O)c1nc2ccc(C(F)(F)F)cc2nc1Oc1ccc(F)cc1 | > 100 | > 100 | – | > 100 | > 100 | – | > 100 | > 100 | > 100 | > 100 | > 100 | > 100 | – | > 100 | > 100 | – | – | – | –
CC(=O)OC1COC(n2c(N)c(C#N)c(C)c(C#N)c2=S)C(OC(C)=O)C1OC(C)=O (stereo not given) | > 100 | > 100 | > 100 | > 100 | – | > 100 | > 100 | > 100 | > 100 | > 100 | > 100 | > 100 | > 100 | – | > 100 | 17.4 µM and 59.8 µM | > 100 µM and 36.6 µM | > 100 µM and 32 µM | > 100 µM and 38.3 µM
C=C[C@H]1CN2CCc3c([nH]c4c([C@H]5CCCN5C)c(O)ccc34)[C@@H]2C[C@@H]1C[C@H]1c2[nH]c3ccccc3c2CCN1C | 2.25 | 3.72 | 3.52 | – | 2.92 | 3.04 | 3.41 | 0.564 | 3 | 2.11 | 4.59 | 2.82 | 3.19 | 2.61 | 2.93 | – | 0.0562 µM | – | –
CCOC(=O)c1ccc(C(=O)/C(C#N)=C2\CCCN2)[nH]1 | > 100 | > 100 | – | > 100 | > 100 | > 100 | > 100 | > 100 | > 100 | > 100 | > 100 | > 100 | > 100 | > 100 | > 100 | – | – | – | –
CCOC(=O)c1c(NC(=O)Nc2ccccc2)c(C(N)=O)c2n1CCCCC2 | > 100 | > 100 | – | > 100 | > 100 | – | > 100 | > 100 | > 100 | > 100 | > 100 | > 100 | – | > 100 | > 100 | – | – | – | –
C[Si](C)(C)OC1c2[nH]c3ccccc3c2CN2C(=O)CCC12 (stereo not given) | – | > 100 | > 100 | > 100 | > 100 | > 100 | > 100 | > 100 | > 100 | – | > 100 | > 100 | – | > 100 | > 100 | – | – | – | –
CC1(C)C(=O)N=C(N)N1C(=O)OCc1ccccc1 | – | > 100 | > 100 | > 100 | > 100 | > 100 | > 100 | > 100 | > 100 | > 100 | > 100 | > 100 | > 100 | > 100 | > 100 | – | – | – | –
CC(=O)c1ccc2c(c1)oc(=O)n2CCN1CCCCC1 | > 100 | > 100 | – | > 100 | > 100 | > 100 | > 100 | > 100 | > 100 | > 100 | > 100 | > 100 | > 100 | > 100 | > 100 | – | – | – | –
O=[N+]([O-])C(=C(N1CCOCC1)N1CCOCC1)/C(Cl)=C(\Cl)[N+](=O)[O-] | 3.89 | 13.3 | 2.89 | > 100 | 37.8 | 5.92 | 10.1 | – | 29.8 | 96.8 | 16.6 | 30.9 | 3.24 | 4.28 | 5.27 | – | – | – | –
CC(C)CC1c2[nH]c3ccccc3c2C[C@H]2C(=O)NC(CCC(=O)OC(C)(C)C)C(=O)N12 (stereo not given in full) | 72 | > 100 | 88.1 | > 100 | > 100 | 70.8 | 79.1 | 55.2 | 56.2 | – | 54.2 | > 100 | 62.2 | > 100 | > 100 | – | – | – | –
CC(=O)Nc1ccc2c(C)c3c4ccccc4n(C)c3nc2n1 | 34.6 | 84.8 | 65.6 | > 100 | – | 43.3 | 41.2 | 41.2 | 94.8 | 80.5 | 50.2 | 40.2 | – | 44.6 | 46.6 | – | – | – | –
CCCCCCCCCCCCCCCCP(=O)(O)OP(=O)(O)OCC1OC(n2cnc3c(N)ncnc32)C(O)C1O (stereo not given) | – | > 100 | 41.7 | 39.6 | 41.1 | 59.5 | > 100 | > 100 | 37.3 | 97.4 | 89.1 | 53.8 | 44.8 | 47.3 | 88.1 | – | – | – | –
CC(=O)O[C@H]1C(=O)[C@@]2(C)[C@H]([C@H](OC(=O)C3CCCCC3)[C@]3(O)C[C@H](OC(=O)[C@H](O)[C@@H](NC(=O)C4CCCCC4)C4CCCCC4)C(C)=C1C3(C)C)[C@]1(OC(C)=O)CO[C@@H]1C[C@@H]2O | 0.555 | 0.778 | 0.136 | 3.88 | 1.66 | 14.8 | 0.476 | – | 0.803 | 8.78 | 0.0531 | 5.53 | 4.96 | 3.33 | 25 | – | – | – | –
CCCCCc1c2nc(c(CCCCC)c3ccc([nH]3)c(CCCCC)c3ccc([nH]3)c(CCCCC)c3nc1C=C3)C=C2 | – | > 100 | > 100 | – | > 100 | > 100 | > 100 | > 100 | > 100 | > 100 | > 100 | > 100 | > 100 | > 100 | > 100 | – | – | – | –
CC1OC(O[C@H]2CC[C@]3(C)[C@H]4CC=C5[C@@H]6[C@@H](C)[C@H](C)CC[C@]6(C(=O)O)CC[C@@]5(C(=O)O)[C@]4(C)CC[C@H]3C2(C)C)C(O)C(O)C1O (stereo not given in full) | > 75 | > 75 | > 75 | – | > 75 | > 75 | > 75 | > 75 | > 75 | > 75 | > 75 | > 75 | – | > 75 | > 75 | – | – | – | –
C=CCOCn1ccc(=O)[nH]c1=O | – | > 100 | > 100 | > 100 | – | > 100 | > 100 | > 100 | > 100 | > 100 | > 100 | > 100 | > 100 | > 100 | > 100 | – | – | – | –
O=S1(=O)CCN(Cc2ccccc2)/C1=N\S(=O)(=O)c1ccc(Cl)cc1 | 34.6 | 31.1 | 29.9 | 34.4 | 33.5 | 33.3 | > 100 | 65.9 | > 100 | 85.5 | 73.8 | > 100 | – | 33 | 36.7 | – | – | – | –
O=C(Cc1ccccc1)c1ccc2[nH]c(=O)oc2c1 | > 100 | > 100 | – | 63.2 | 62.3 | > 100 | > 100 | > 100 | > 100 | > 100 | 22.9 | > 100 | – | > 100 | > 100 | – | – | – | –
